Data as given in patent publication US20240115521A1, “COMPOUNDS FOR THE TREATMENT OF MYCOBACTERIAL DISEASES” (priority 2022, published 2024).

Tests used:
[1] = system: intracellular BCG; test: microbe, parasite or virus in culture; type: cell-based; conditions: Mycobacterium tuberculosis variant bovis BCG, read-out: Activity on intracellular BCG (% inhibition)
[2] = system: intracellular Mtb; test: Inhibition of Mtb growth inside primary human monocytes (3H-Uridine); type: cell-based; conditions: Mycobacterium tuberculosis, Monocyte, all drugs tested at 20 μM
Protocol: FIGS. 1A & 1B show the structure and anti-mycobacterial activity of select troponoids. Shown are the structures (FIG. 1A) and calculated percent inhibitions of M. tuberculosis (Mtb) growth inside primary human monocytes by 4 selected troponoids (FIG. 1B).
Numerous troponoids have been synthesized and screened on Mtb and MAC and identified three with activities at a concentration of ≤5 μM. […] Briefly, primary monocytes were infected with mycobacteria (Mtb) for 4 hours, then co-cultured with indicated troponoids (2.5-20 μM) for 3 days. Then mammalian cells were lysed with saponin and residual mycobacteria quantified via ^3H-Uridine as previously described (Abate et al. 2015).

[3] = Human liver microsome assay; type: in vitro ADME; conditions: for half-life: human liver microsomes; for Stability in human liver microsomal studies: result in words
Source text: (§1) Because the murine model will be used for initial drug efficacy studies and our goal is to develop drugs for human use, in vitro liver microsomal studies we performed using both mouse and human liver microsomes.

[4] = Mouse liver microsome stability; type: in vitro ADME; conditions: result in words
Source text: as §1

[5] = Caco2 in vitro permeability assay; conditions: human, Caco-2
[6] = system: Caco2; test: Caco2 in vitro permeability assay; conditions: for Caco2 PappA > B: apical to basolateral; for Caco2 PappB > A: basolateral to apical; for GI absorption by Caco-2 in vitro testing: result in words

SMILES: CCCCSc1cccc(O)c(=O)c1O [#693]
- inhibition at 20 µM [1]: 89.2%

SMILES: CCCCSc1ccc(SCCCC)c(O)c(=O)c1O [#694]
- inhibition at 20 µM [1]: 91.8%
- inhibition at 20 µM [2]: 86.5%
- half-life [3]: 9.8 min
- Stability in human liver microsomal studies [3]: stable
- Stability in mice liver microsomal studies [4]: stable
- efflux ratio [5]: 19
- Caco2 PappA > B [6]: 5.83E−06 sec*cm^2
- Caco2 PappB > A [6]: 1.11E−04 sec*cm^2
- GI absorption by Caco-2 in vitro testing [6]: good GI absorption

SMILES: Cc1ccc(S(=O)(=O)c2cccc(O)c(=O)c2O)cc1 [#697]
- inhibition at 20 µM [1]: 0%

SMILES: CCCCCCS(=O)(=O)c1cccc(O)c(=O)c1O [#699]
- inhibition at 20 µM [1]: 0%

SMILES: O=c1c(O)cccc(S)c1O [#701]
- inhibition at 20 µM [1]: 38.8%

SMILES: Cc1cc(O)c(=O)c(O)cc1C(=O)N1CCSC1 [#712]
- inhibition at 20 µM [1]: 32.1%

SMILES: COc1ccc(-c2ccccc(N)c2=O)cc1 [#762]
- inhibition at 20 µM [1]: 10.8%

SMILES: CCn1cc(C(=O)O)c(=O)c2cc(F)c(N3CCN(c4cccccc4=O)CC3)cc21 [#764]
- inhibition at 20 µM [1]: 14.5%

SMILES: O=c1cccccc1N1CCOCC1 [#765]
- inhibition at 20 µM [1]: 24.3%

SMILES: O=c1cccccc1N1CCCC1 [#766]
- inhibition at 20 µM [1]: 14%

SMILES: CCS(=O)(=O)N1CCN(C(=O)c2cc(O)c(=O)c(O)cc2C)CC1 [#802]
- inhibition at 20 µM [1]: 0%

SMILES: Cc1ccc(Sc2cccc(O)c(=O)c2O)cc1 [#838]
- inhibition at 20 µM [1]: 29.3%

SMILES: CCCCCCSc1cccc(O)c(=O)c1O [#840]
- inhibition at 20 µM [1]: 74.7%
- inhibition at 20 µM [2]: 89.4%
- half-life [3]: > 30 min
- Stability in human liver microsomal studies [3]: stable
- Stability in mice liver microsomal studies [4]: stable
- efflux ratio [5]: 14.6
- Caco2 PappA > B [6]: 1.45E−05 sec*cm^2
- Caco2 PappB > A [6]: 2.11E−04 sec*cm^2
- GI absorption by Caco-2 in vitro testing [6]: good GI absorption

SMILES: CCCCCCSc1ccc(SCCCCCC)c(O)c(=O)c1O [#841]
- inhibition at 20 µM [1]: 83.5%
- inhibition at 20 µM [2]: 91.5%
- half-life [3]: 7 min
- Stability in human liver microsomal studies [3]: stable
- Stability in mice liver microsomal studies [4]: stable
- efflux ratio [5]: 1.7
- Caco2 PappA > B [6]: 3.08E−06 sec*cm^2
- Caco2 PappB > A [6]: 5.18E−06 sec*cm^2
- GI absorption by Caco-2 in vitro testing [6]: good GI absorption

SMILES: COc1cc(-c2ccccc(S)c2=O)cc(OC)c1OC [#842]
- inhibition at 20 µM [1]: 25%

SMILES: COc1cc(-c2ccccc(SSc3ccccc(-c4cc(OC)c(OC)c(OC)c4)c3=O)c2=O)cc(OC)c1OC [#843]
- inhibition at 20 µM [1]: 26.5%

SMILES: O=c1c(S)ccccc1-c1ccccc1 [#844]
- inhibition at 20 µM [1]: 19.1%

SMILES: O=C1Nc2ccccc2CCC1S (stereo not shown) [#845]
- inhibition at 20 µM [1]: 9%

SMILES: O=C1Nc2ccccc2CCC1SC1CCc2ccccc2NC1=O (stereo not shown) [#846]
- inhibition at 20 µM [1]: 0%

SMILES: Cc1ccc(C(=O)Oc2cc(C(C)C)cccc2=O)cc1 [#847]
- inhibition at 20 µM [1]: 28.8%

SMILES: O=C(O)COc1cc(O)c2c(=O)cc(-c3ccccc3)oc2c1 [#859]
- inhibition at 20 µM [1]: 11.3%

SMILES: COc1ccc(-c2cc(=O)c3c(O)cc(O)cc3o2)cc1 [#861]
- inhibition at 20 µM [1]: 0%

SMILES: CC(C)c1nc(CN(C)C(=O)N[C@H](C(=O)N[C@@H](Cc2ccccc2)C[C@H](O)[C@H](Cc2ccccc2)NC(=O)OCc2cncs2)C(C)C)cs1 [Ritonavir, reference compound]
- half-life [3]: < 5 min

SMILES: CC(=O)CC(c1ccccc1)c1c(O)c2ccccc2oc1=O (stereo not shown) [Warfarin, reference compound]
- Caco2 PappA > B [6]: 9.37E−05 sec*cm^2
- Caco2 PappB > A [6]: 2.70E−04 sec*cm^2
